In PubChem BioAssay (NCI):
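The compound was tested at five concentrations on cells cultured in 96-well plates, with a 48-hour exposure period. TGI denotes the concentration required for complete inhibition of growth.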

Assays:
Assay in all cases: NCI-60 cell line screen, 48 h
[1] = system: UACC-62 melanoma
[2] = system: MDA-N
[3] = system: SK-MEL-2 melanoma
[4] = system: UO-31 renal
[5] = system: NCI-H522 lung
[6] = system: PC-3 prostate
[7] = system: OVCAR-8 ovarian
[8] = system: M14 melanoma
[9] = system: NCI-H460 lung
[10] = system: MDA-MB-231 breast
[11] = system: HT29 colon
[12] = system: SW-620 colon
[13] = system: A549 NSCLC
[14] = system: HCC-2998 colon
[15] = system: OVCAR-4 ovarian
[16] = system: SNB-75 CNS
[17] = system: KM12 colon
[18] = system: CCRF-CEM leukemia
[19] = system: IGROV1 ovarian
[20] = system: SF-539 CNS
[21] = system: HCT-15 colon
[22] = system: COLO 205 colon
[23] = system: SK-OV-3 ovarian
[24] = system: LOX IMVI melanoma
[25] = system: MCF7 breast
[26] = system: HCT-116 colon
[27] = system: SR leukemia
[28] = system: NCI/ADR-RES ovarian
[29] = system: EKVX NSCLC
[30] = system: SF-268 CNS
[31] = system: MALME-3M melanoma
[32] = system: K-562 leukemia
[33] = system: T-47D breast
[34] = system: CAKI-1 renal
[35] = system: SF-295 CNS
[36] = system: SK-MEL-28 melanoma
[37] = system: SNB-19 CNS
[38] = system: SN12C renal
[39] = system: UACC-257 melanoma
[40] = system: NCI-H226 lung
[41] = system: HS 578T breast
[42] = system: RXF 393 renal
[43] = system: BT-549 breast
[44] = system: A498 renal
[45] = system: NCI-H23 lung
[46] = system: DU-145 prostate
[47] = system: U251 CNS
[48] = system: MOLT-4 leukemia
[49] = system: OVCAR-3 ovarian
[50] = system: HL-60(TB) leukemia
[51] = system: MDA-MB-435
[52] = system: ACHN renal
[53] = system: 786-0 renal
[54] = system: RPMI-8226 leukemia
[55] = system: OVCAR-5 ovarian
[56] = system: HOP-92 NSCLC

Measured: TGI

CCOC(=O)C1(C#N)OC(=O)c2cnccc21 (stereo unspecified)
> 100 µM: all assays above
